Source: patent US9023831B2, “Methods and compositions of inhibiting complement and cellular activation with Dextran Sulfate” (Novelmed Therapeutics, Inc., priority 2007, dated 2015)
“And” between values parts separate entries of the source, which are not always exact repeats. Equal entries are not always repeated. “Also recorded” adds a separate entry of the source.

How the values were obtained:
[1] = molecular target: T1, human properdin (or factor P) (Homo sapiens, UniProt P27918); experiment: Properdin binding to substrate-bound Dextran Sulfate (ELISA); conditions: substrate-bound Dextran Sulfate on microtiter plate; read-out: affinity of properdin binding to Dextran Sulfate (concentration of properdin at 50% maximal binding)
T1 construct: purchased Advanced Research Technology, San Diego, Calif; A139
T1 sequence (P27918 28-469): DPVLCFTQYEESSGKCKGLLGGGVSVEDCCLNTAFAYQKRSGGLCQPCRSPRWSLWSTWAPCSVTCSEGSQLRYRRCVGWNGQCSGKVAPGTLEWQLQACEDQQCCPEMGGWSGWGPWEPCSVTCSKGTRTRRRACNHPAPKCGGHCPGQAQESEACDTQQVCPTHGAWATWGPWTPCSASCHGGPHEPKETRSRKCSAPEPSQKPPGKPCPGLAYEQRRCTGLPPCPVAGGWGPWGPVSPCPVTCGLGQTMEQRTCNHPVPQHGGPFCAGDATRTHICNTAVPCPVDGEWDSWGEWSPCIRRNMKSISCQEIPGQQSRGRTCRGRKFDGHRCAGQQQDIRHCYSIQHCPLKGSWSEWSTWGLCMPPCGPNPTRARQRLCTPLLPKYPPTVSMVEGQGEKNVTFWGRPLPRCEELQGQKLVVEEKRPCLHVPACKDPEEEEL
Protocol: The binding of properdin appears to be specific and dose dependent. Leading to an affinity of 4 nM. […] Wells without Dextran Sulfate coating serve as background controls. […] Properdin solution was added to the appropriate wells.

[2] = test system: neutrophils (CD11b expression); experiment: Neutrophil activation (CD11b flow cytometry) after tubing loop; assay type: cell-based, human
Source text: Same samples of blood following the tubing loop were also subjected to neutrophil specific flow cytometry. […] Similar data was obtained with multiple donors. In the Figure are shown Rotated Control (blood sample in tubing loop), Unrotated controls (samples taken out before tubing loop). Unrotated represents the background controls.
The activation of neutrophils, monocyte and platelets were quantitated by measuring the levels of the cell-surface expression of CD11b and CD62P on neutrophils/monocytes and platelets, respectively. For CD11b labeling of neutrophils, 200 μl of whole blood collected from the circuits were immediately incubated with 20 μl of phycoerythrin (PE)-anti-CD11b antibody (Becton Dickinson, San Jose, Calif.) for 20 minutes at room temperature in a microcentrifuge tube. Then 2 ml of FACS Lysing Solution (Becton Dickinson) was added for 20 minutes at room temperature to lyse red blood cells and to fix leukocytes. The microcentrifuge tubes were centrifuged at 300 g for 5 minutes for leukocytes and 1200 g for platelets. The supernatant was aspirated and the cells resuspended in PBS for washing. The tubes were spun again, the supernatant aspirated, and the cells finally resuspended in 0.5 ml of 1% paraformaldehyde overnight prior to analysis using an BD-LSR flow cytometer (BD Biosciences). For double labeling to concomitantly identify the neutrophil population, 10 μl of fluorescein isothiocyanate (FITC)-anti-CD15 antibody (clone MMA, Becton Dickinson) were added for incubation together with PE-anti-CD11b antibody to stain neutrophils and anti-CD14 (FITC) along with PE-CD11b was used for monocytes.
Neutrophils bear both C3a and C5a receptors. Thus, prevention of C3a/C5a production should have direct effect on CD11b expression. Monocytes have been known to bear the C3a receptors. C3a produced because of complement activation is known to activate monocytes.
(§1) For flow cytometry measurement, the PMN (containing mainly neutrophils) and platelet populations were identified by live gating based on forward- versus side-scatter parameters and specific staining with FITC-anti-CD15 antibody and FITC-anti-CD61 antibody, respectively. The background staining was gated using isotype-matched labeled antibodies. The intensity of expression of CD11b and CD62P was represented by mean fluorescence intensity (MFI).

[3] = test system: platelets (CD62P staining); experiment: Platelet activation (CD62P flow cytometry) after tubing loop; assay type: cell-based, human
Protocol: It was expected that platelet activation would also be inhibited. […] The inhibition of platelet activation was measured using flow cytometry following CD62P staining of activated platelets.
It was expected that platelet activation will also be inhibited. […] The inhibition of platelet activation was measured using flow cytometry following CD62P staining of activated platelets.
While platelets bear C3a receptors, it is not clear how platelets were being activated. In an effort to downregulate platelet activation, we performed an experiment in which Dextran Sulfate was utilized in combination with aspirin. […] These surprising results present Dextran Sulfate as a lead complement inhibitory drug that down regulates both complement and cellular activation in heparinized whole human blood. Shown in FIGS. 10d and 10e are results from this study.
For CD62P labeling of platelets, 100 μl of diluted blood collected from the circuits were immediately incubated with 20 μl of PE-anti-CD62P antibody (Becton Dickinson) for 20 minutes at room temperature in a polypropylene tube, Then the mixture was treated with FACS Lysing Solution as described above. The microcentrifuge tubes were centrifuged at 12000. g for 5 minutes. The platelets were washed in PBS/BSA 01%, fixed in 1% paraformaldehyde and then analyzed as described above. For double labeling to concomitantly identify the platelet population, 5 μl of FITC-anti-CD61 antibody were added for incubation together with PE-anti-CD62P antibody.
as §1

arthritic Lewis rats = experiment: Joint inflammation and bone destruction in Rat-AIA (CFA-induced arthritis); assay type: in vivo
Protocol: Lewis male rats were used to examine the effect of Dextran Sulfate combination with aggrastat (molecular weight 40,000 and 5,000) for the treatment of arthritis. Arthritis was induced in adult male Lewis rats (200-225 gm) by an intradermal injection of complete Freund's adjuvant (CFA) at the base of the tail on the dorsal side. The CFA (100 mg dried and heat killed Mycobacterium butyricum (Difco, Detroit, Mich.) emulsified in 10 ml sterile mineral oil) was prepared by grinding the bacteria powder with a mortar and pestle until the bacterial cell wall turned from a light beige to an eggshell white powder. The mineral oil was then slowly mixed into the bacterial cell wall using the mortar and pestle. All animals in each experiment were challenged with the same preparation of adjuvant and nearly 100% of the animals developed arthritis. Dextran Sulfate was obtained from Sigma Aldrich Corp and Aggrastat was purchased from the pharmacy. Dextran Sulfate was dissolved in aggrastat. The drug treatment started on day 10 post-immunization, the time of disease onset, and continued until sacrifice. The dose of Dextran Sulfate was 20 & 10 mg/Kg/per day per 150-200 g rat. The inflammatory response was assesed by the measurement of paw volume. Paw volume appears to be very consistent and gave slow increasing arthritis over time. Paw volumes were measured every day until sacrifice using Plethysmometer (IITC). After the sacrifice/euthanasia, limbs were removed and processed for;
a) histological evaluations: Only three animals were used per group. Sections were stained with Eosin and hematoxylin to identify various regions within the inflamed limb. Untreated controls have intact cartilage layer and the bone (Score 0) and clear synovium without pannus. Arthritic controls had no defined cartilage bone, and have pannus layer and significant inflammation (Score 5). Enbrel was used as positive control. […] We gave a score of 2.
b) Paw Swelling: Each paw was measured for water displacement using plethysmometer. Paw volume was measured every day.
Continuous treatment of Dextran Sulfate therapies from disease onset affected paw swelling in arthritic rats. All adjuvant-challenged rats developed AA between days 10-12. […] While inflammation was decreased in these treatment groups, we observed a greater effect for these drugs in prevention of bone and cartilage destruction.

[4] = test system: immune cells infiltrating the synovial fluid; experiment: Cellular infiltration into arthritic knee joints of AIA rabbits; conditions: 48-h after last treatment, vs vehicle-treated AIA rabbits
Protocol: Methods. The numbers of immune cells infiltrating the synovial fluid of the right and left joints was determined by cell counting using a hemocytometer.
Synovial samples were also collected from the right and left knees of the AIA rabbits in this experiment and assessed for immunocyte infiltration 48-h after the last Dextran Sulfate or vehicle treatment. […] Data are presented as mean number of cells±SEM for each rabbit (N of 5 per treatment group, Stats: repeated measure ANOVA with Bonferoni Post-hoc test, *p<0.05).

[5] = test system: Alternative Pathway (AP) Activation in a Rabbit Erythrocyte Assay; experiment: Alternative pathway-dependent hemolysis of rabbit erythrocytes in normal human serum; conditions: for inhibition of AP-dependent hemolysis: 10 μg/ml
Protocol: X axis is time of hemolysis in seconds and Y-axis is scattering at 700 nm. Methods: Normal human serum 10% was incubated with rabbit erythrocytes in AP buffer with and without Dextran Sulfate. Various concentrations of Dextran Sulfate were used ranging from 1 to 60 μg/ml.
The Dextran Sulfate (40,000 molecular weight) was examined in the alternative pathway dependent hemolysis assay. […] Normal human serum, at various concentrations in Gelatin Veronal Buffer (GVB) (Advanced Research Technology) with 5 mM MgCl2 and 10 mM EGTA, was incubated with 37° C. with a fixed number of rabbit erythrocytes (Advanced Research Technology). A progressive decrease in light scatter (due to lysis of intact cells) was measured at 700 nm as a function of time in a temperature-controlled ELISA plate reader. […] The data were recorded and analyzed with a SpectraMax 190 plate reader and SoftMax Pro software.
We evaluated Dextran Sulfate effect in a cellular assay as a means of examining the effects of the Dextran Sulfate on alternative pathway function. Increasing amounts of the Dextran Sulfate were added to 10% human serum that was incubated with rabbit erythrocytes at 37° C.

Kd [1]: 4 nM and ~4 nM
Substance: Dextran Sulfate [NM3014]
inhibition of neutrophil activation ([2]; 40 μg/ml): no effect
inhibition of neutrophil activation ([2]; 40 μg/ml, listed as Dextran Sulfate): No inhibition
inhibition of neutrophil activation ([2]; 800 to 100 μg/ml): inhibited; also recorded: prevents neutrophil activation
inhibition of neutrophil activation ([2]; 800 to 100 μg/ml, listed as Dextran Sulfate): inhibits neutrophil activation
platelet activation ([3]; 40 μg/ml, above control levels): activates platelet
platelet activation ([3]; 100 μg/ml, above control levels): activates platelet
platelet activation ([3]; treated samples compared to untreated controls, concentration not stated): increased CD62P staining
platelet activation ([3]; treated samples compared to untreated controls, concentration not stated, listed as Dextran Sulfate): activates platelets
soft tissue swelling (arthritic Lewis rats; by day 28 post-adjuvant injection, vs vehicle-treated AA rats): significantly decreased
paw swelling (paw volume, plethysmometer) (arthritic Lewis rats; with Aggrastat, compared to untreated controls, listed as Dextran Sulfate 40,000 molecular weight): significantly decreased
immunocyte infiltration into arthritic knee joints [4]: reduced
immunocyte infiltration into arthritic knee joints ([4]; listed as Dextran Sulfate): significant decrease
inhibition of AP-dependent hemolysis ([5]; 10% human serum): inhibits hemolysis
inhibition of AP-dependent hemolysis ([5]; 10% human serum, listed as Dextran Sulfate): caused inhibition
inhibition of complement AP (hemolysis) ([5]; 30 μg/ml, 10% human serum): Total inhibition
inhibition of erythrocyte lysis / AP function ([5]; increasing concentrations, human serum): completely blocking MAC-mediated cellular destruction; also recorded: full inhibition
